These results are taken from US10202370B2, “Benzimidazole derivatives as selective proteine kinase inhibitors” (AB SCIENCE, priority 2013, dated 2019).

Each structure is given as a SMILES string.

This test has as its target c-kit WT (Homo sapiens (Human), UniProt P10721). The test is described as follows: Proliferation assay (CellTiter-Blue) on BaF3 Kit WT cell line. In kind it is cell-based. Particulars: BaF3 Kit WT cell line (murine Ba/F3 expressing Human Kit WT, with murine SCF), 48 hours. In outline: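 Ba/F3 cells expressing human Kit WT, maintained in RPMI/10% FCS with 250 ng/ml murine SCF, were seeded at 2.10^4 cells/well and exposed to ½ serial dilutions (0–10 μM) for 48 h at 37° C. Viability was measured by CellTiter-Blue fluorescence (544Ex/590Em, 4 h) in triplicate as % of untreated proliferation.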
On the technique in general: Alamar Blue is a resazurin reagent that responds to reducing activity.

Sequence of c-kit WT (P10721 26-976): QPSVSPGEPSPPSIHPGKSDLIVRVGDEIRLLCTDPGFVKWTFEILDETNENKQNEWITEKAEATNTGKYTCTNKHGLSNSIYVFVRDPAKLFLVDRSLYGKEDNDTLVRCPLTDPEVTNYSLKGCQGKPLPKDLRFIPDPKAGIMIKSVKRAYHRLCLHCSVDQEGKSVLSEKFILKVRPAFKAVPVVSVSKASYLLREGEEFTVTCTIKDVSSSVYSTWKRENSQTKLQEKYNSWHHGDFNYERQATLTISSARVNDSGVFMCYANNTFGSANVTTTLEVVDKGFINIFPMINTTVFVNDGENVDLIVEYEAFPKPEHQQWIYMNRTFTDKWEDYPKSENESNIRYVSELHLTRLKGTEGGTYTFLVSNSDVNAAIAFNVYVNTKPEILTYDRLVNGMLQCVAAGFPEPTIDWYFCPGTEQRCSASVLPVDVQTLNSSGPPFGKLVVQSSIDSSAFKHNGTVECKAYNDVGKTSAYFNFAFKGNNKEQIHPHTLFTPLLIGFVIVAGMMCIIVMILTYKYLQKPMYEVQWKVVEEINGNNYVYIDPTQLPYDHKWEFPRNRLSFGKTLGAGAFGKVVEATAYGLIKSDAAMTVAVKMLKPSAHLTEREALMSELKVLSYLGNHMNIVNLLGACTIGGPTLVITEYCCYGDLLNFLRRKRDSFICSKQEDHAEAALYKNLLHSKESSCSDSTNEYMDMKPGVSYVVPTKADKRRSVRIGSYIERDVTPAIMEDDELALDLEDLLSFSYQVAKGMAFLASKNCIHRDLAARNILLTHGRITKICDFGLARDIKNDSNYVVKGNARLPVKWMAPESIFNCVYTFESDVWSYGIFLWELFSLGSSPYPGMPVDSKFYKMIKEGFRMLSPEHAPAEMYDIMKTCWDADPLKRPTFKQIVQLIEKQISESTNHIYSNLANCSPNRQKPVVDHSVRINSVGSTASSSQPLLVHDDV

`Cn1c(-c2cccc(OC(F)(F)F)c2)nc2cc(Nc3nc(-c4cccnc4)cs3)ccc21` [Compound 092, [1-Methyl-2-(3-trifluoromethoxy-phenyl)-1H-benzoimidazol-5-yl]-(4-pyridin-3-yl-thiazol-2-yl)-amine]: the half-inhibitory concentration (IC50) (in general, the concentration that inhibits the measured activity by half) was 1000 to 10000 nM.
For `Cc1cc2c(cc1Nc1nc(-c3cccnc3)cs1)nc(-c1ccc(C(F)F)cc1)n2C` [Compound 093, [2-(4-Difluoromethyl-phenyl)-1,6-dimethyl-1H-benzoimidazol-5-yl]-(4-pyridin-3-yl-thiazol-2-yl)-amine], the IC50 was no more than 1000 nM.
To `Cc1cc2c(cc1Nc1nc(-c3ccncc3)cs1)nc(-c1ccc(C(F)F)cc1)n2C` [Compound 094, [2-(4-Difluoromethyl-phenyl)-1,6-dimethyl-1H-benzoimidazol-5-yl]-(4-pyridin-4-yl-thiazol-2-yl)-amine] belongs no more than 1000 nM; to `Cc1cc2c(cc1Nc1nc(-c3cccnc3)cs1)nc(-c1cccc(N3CCN(C)CC3)c1)n2C` [Compound 095, {1,6-Dimethyl-2-[3-(4-methyl-piperazin-1-yl)-phenyl]-1H-benzoimidazol-5-yl}-(4-pyridin-3-yl-thiazol-2-yl)-amine], 1000 to 10000 nM.
To `Cc1cc2c(cc1Nc1nc(-c3ccncc3)cs1)nc(-c1cccc(N3CCN(C)CC3)c1)n2C` [Compound 096, {1,6-Dimethyl-2-[3-(4-methyl-piperazin-1-yl)-phenyl]-1H-benzoimidazol-5-yl}-(4-pyridin-4-yl-thiazol-2-yl)-amine] belongs 1000 to 10000 nM; to `Cc1cc2[nH]c(-c3ccc(C(F)F)cc3)nc2cc1Nc1nc(-c2cccnc2)cs1` [Compound 097, [2-(4-Difluoromethyl-phenyl)-6-methyl-1H-benzoimidazol-5-yl]-(4-pyridin-3-yl-thiazol-2-yl)-amine], no more than 1000 nM.
Under `Cc1cc2c(cc1Nc1nc(-c3cccnc3)cs1)nc(-c1ccc(CN3CCN(C)CC3)cc1)n2C` [Compound 098, {1,6-Dimethyl-2-[4-(4-methyl-piperazin-1-ylmethyl)-phenyl]-1H-benzoimidazol-5-yl}-(4-pyridin-3-yl-thiazol-2-yl)-amine] stands 1000 to 10000 nM.
With `Cc1cc2c(cc1Nc1nc(-c3ccncc3)cs1)nc(-c1ccc(CN3CCN(C)CC3)cc1)n2C` [Compound 099, {1,6-Dimethyl-2-[4-(4-methyl-piperazin-1-ylmethyl)-phenyl]-1H-benzoimidazol-5-yl}-(4-pyridin-4-yl-thiazol-2-yl)-amine], the half-maximal inhibitory concentration (IC50) lay within 1000 to 10000 nM.
Under `Cc1cc2c(cc1Nc1nc(-c3ccncc3)cs1)nc(-c1cccc(C(F)F)c1)n2C(C)C` [Compound 100, [2-(3-Difluoromethyl-phenyl)-1-isopropyl-6-methyl-1H-benzoimidazol-5-yl]-(4-pyridin-4-yl-thiazol-2-yl)-amine] stands no more than 1000 nM; under `Cc1cc2c(cc1Nc1nc(-c3ccncc3)cs1)nc(-c1cccc(C(F)(F)F)c1)n2C(C)C` [Compound 101, [1-Isopropyl-6-methyl-2-(3-trifluoromethyl-phenyl)-1H-benzoimidazol-5-yl]-(4-pyridin-4-yl-thiazol-2-yl)-amine], no more than 1000 nM.
Under `Cc1cccc(-c2nc3cc(Nc4nc(-c5ccncc5)cs4)c(C)cc3n2C(C)C)c1` [Compound 102, (1-Isopropyl-6-methyl-2-m-tolyl-1H-benzoimidazol-5-yl)-(4-pyridin-4-yl-thiazol-2-yl)-amine] stands no more than 1000 nM; under `CCn1c(-c2cccc(C(F)F)c2)nc2cc(Nc3nc(-c4ccncc4)cs3)c(C)cc21` [Compound 103], no more than 1000 nM.
Take `CCn1c(-c2cccc(C)c2)nc2cc(Nc3nc(-c4ccncc4)cs3)c(C)cc21` [Compound 104, (1-Ethyl-6-methyl-2-m-tolyl-1H-benzoimidazol-5-yl)-(4-pyridin-4-yl-thiazol-2-yl)-amine]: the half-inhibitory concentration (IC50) was no more than 1000 nM.
To `CCn1c(-c2cccc(C(F)(F)F)c2)nc2cc(Nc3nc(-c4ccncc4)cs3)c(C)cc21` [Compound 105, [1-Ethyl-6-methyl-2-(3-trifluoromethyl-phenyl)-1H-benzoimidazol-5-yl]-(4-pyridin-4-yl-thiazol-2-yl)-amine] belongs no more than 1000 nM; to `Cc1cc2[nH]c(-c3cccc(C(F)(F)F)c3)nc2cc1Nc1nc(-c2ccnc(Cl)c2)cs1` [Compound 106, [4-(2-Chloro-pyridin-4-yl)-thiazol-2-yl]-[6-methyl-2-(3-trifluoromethyl-phenyl)-1H-benzoimidazol-5-yl]-amine], no more than 1000 nM.
`Cc1cccc(-c2nc3cc(Nc4nc(-c5ccnc(Cl)c5)cs4)c(C)cc3[nH]2)c1` [Compound 107, [4-(2-Chloro-pyridin-4-yl)-thiazol-2-yl]-(6-methyl-2-m-tolyl-1H-benzoimidazol-5-yl)-amine] returned an IC50 of no more than 1000 nM.
To `Cc1cc2[nH]c(-c3cccc(C(F)F)c3)nc2cc1Nc1nc(-c2ccnc(Cl)c2)cs1` [Compound 108, [4-(2-Chloro-pyridin-4-yl)-thiazol-2-yl]-[2-(3-difluoromethyl-phenyl)-6-methyl-1H-benzoimidazol-5-yl]-amine] belongs no more than 1000 nM; to `CCn1c(-c2cccc(C(F)F)c2)nc2cc(Nc3nc(-c4cccnc4)cs3)c(C)cc21` [Compound 109], no more than 1000 nM; to `CCn1c(-c2cccc(C(F)(F)F)c2)nc2cc(Nc3nc(-c4cccnc4)cs3)c(C)cc21` [Compound 110, [1-Ethyl-6-methyl-2-(3-trifluoromethyl-phenyl)-1H-benzoimidazol-5-yl]-(4-pyridin-3-yl-thiazol-2-yl)-amine], no more than 1000 nM.
Under `Cc1cc2c(cc1Nc1nc(-c3ccc(C#N)cc3)cs1)nc(-c1cccc(C(F)F)c1)n2C` [Compound 111, 4-{2-[2-(3-Difluoromethyl-phenyl)-1,6-dimethyl-1H-benzoimidazol-5-ylamino]-thiazol-4-yl}-benzonitrile] stands no more than 1000 nM; under `Cc1cccc(-c2nc3cc(Nc4nc(-c5ccc(C#N)cc5)cs4)c(C)cc3n2C)c1` [Compound 112, 4-[2-(1,6-Dimethyl-2-m-tolyl-1H-benzoimidazol-5-ylamino)-thiazol-4-yl]-benzonitrile], no more than 1000 nM; under `Cc1cc2nc(-c3cccc(C(F)F)c3)n(C)c2cc1Nc1nc(-c2cccnc2)cs1` [Compound 113, [2-(3-Difluoromethyl-phenyl)-3,6-dimethyl-3H-benzoimidazol-5-yl]-(4-pyridin-3-yl-thiazol-2-yl)-amine], 1000 to 10000 nM.
`Cc1cc2c(cc1Nc1nc(-c3ccc(C#N)cc3)cs1)nc(-c1cccc(C(F)(F)F)c1)n2C` [Compound 114, 4-{2-[1,6-Dimethyl-2-(3-trifluoromethyl-phenyl)-1H-benzoimidazol-5-ylamino]-thiazol-4-yl}-benzonitrile] came in with a concentration for half-maximal inhibition (IC50) of no more than 1000 nM.
To `CCn1c(-c2cccc(OC(F)(F)F)c2)nc2cc(Nc3nc(-c4cccnc4)cs3)c(C)cc21` [Compound 115, [1-Ethyl-6-methyl-2-(3-trifluoromethoxy-phenyl)-1H-benzoimidazol-5-yl]-(4-pyridin-3-yl-thiazol-2-yl)-amine] belongs no more than 1000 nM; to `Cc1cc2nc(-c3cccc(C(F)(F)F)c3)n(C)c2cc1Nc1nc(-c2cccnc2)cs1` [Compound 116, [3,6-Dimethyl-2-(3-trifluoromethyl-phenyl)-3H-benzoimidazol-5-yl]-(4-pyridin-3-yl-thiazol-2-yl)-amine], 1000 to 10000 nM; to `Cc1cc2nc(-c3cccc(OC(F)(F)F)c3)n(C)c2cc1Nc1nc(-c2cccnc2)cs1` [Compound 117, [3,6-Dimethyl-2-(3-trifluoromethoxy-phenyl)-3H-benzoimidazol-5-yl]-(4-pyridin-3-yl-thiazol-2-yl)-amine], 1000 to 10000 nM.
Regarding `Cc1cccc(-c2nc3cc(C)c(Nc4nc(-c5cccnc5)cs4)cc3n2C)c1` [Compound 118, (3,6-Dimethyl-2-m-tolyl-3H-benzoimidazol-5-yl)-(4-pyridin-3-yl-thiazol-2-yl)-amine], the half-inhibitory concentration (IC50) lay within 1000 to 10000 nM.
To `Cc1cc2c(cc1Nc1nc(-c3ccnc(Cl)c3)cs1)nc(-c1cccc(C(F)F)c1)n2C` [Compound 119, [4-(2-Chloro-pyridin-4-yl)-thiazol-2-yl]-[2-(3-difluoromethyl-phenyl)-1,6-dimethyl-1H-benzoimidazol-5-yl]-amine] belongs no more than 1000 nM.
In the case of `Cc1cc2c(cc1Nc1nc(-c3ccncc3)cs1)nc(-c1cccc(S(C)(=O)=O)c1)n2C` [Compound 120, [2-(3-Methanesulfonyl-phenyl)-1,6-dimethyl-1H-benzoimidazol-5-yl]-(4-pyridin-4-yl-thiazol-2-yl)-amine], the IC50 was no more than 1000 nM.
Under `Cc1cc2[nH]c(-c3cccc(S(C)(=O)=O)c3)nc2cc1Nc1nc(-c2cccnc2)cs1` [Compound 121, [2-(3-Methanesulfonyl-phenyl)-6-methyl-1H-benzoimidazol-5-yl]-(4-pyridin-3-yl-thiazol-2-yl)-amine] stands no more than 1000 nM; under `C=CS(=O)(=O)Nc1cc(-c2nc3cc(Nc4nc(-c5ccncc5)cs4)c(C)cc3n2C)cc(C(F)(F)F)c1` [Compound 122, Ethenesulfonic acid {3-[1,6-dimethyl-5-(4-pyridin-4-yl-thiazol-2-ylamino)-yl]-5-trifluoromethyl-phenyl}-amide], 1000 to 10000 nM; under `Cc1cc2[nH]c(-c3cccc(F)c3)nc2cc1Nc1nc(-c2cccnc2)cs1` [Compound 123, [2-(3-Fluoro-phenyl)-6-methyl-1H-benzoimidazol-5-yl] (4-pyridin-3-yl-thiazol-2-yl)-amine], 1000 to 10000 nM.
To `Cc1cc2c(cc1Nc1nc(-c3ccncc3)cs1)nc(-c1cccc(F)c1)n2C` [Compound 124, [2-(3-Fluoro-phenyl)-1,6-dimethyl-1H-benzoimidazol-5-yl]-(4-pyridin-4-yl-thiazol-2-yl)-amine] belongs no more than 1000 nM; to `COc1cccc(-c2nc3cc(Nc4nc(-c5ccncc5)cs4)c(C)cc3n2C)c1` [Compound 125, [2-(3-Methoxy-phenyl)-1,6-dimethyl-1H-benzoimidazol-5-yl]-(4-pyridin-4-yl-thiazol-2-yl)-amine], no more than 1000 nM.
